Experimental data from patent US20100298141A1, “SUBSTITUTED PYRIDINE N-OXIDE HERBICIDES” (E. I. DU PONT DE NEMOURS AND COMPANY, priority 2007, published 2010).

Experiments:
redroot pigweed = assay: Test A pre-/postemergence greenhouse test; type: in vivo, Amaranthus retroflexus; conditions: for Pigweed plant response rating: 0 to 100 scale; for Plant response rating, Pigweed: 0 to 100 scale where 0 is no effect and 100 is complete control
Source text: (§1) Seeds of barnyardgrass (Echinochloa crus-galli), crabgrass (Digitaria sanguinalis), giant foxtail (Setaria faberi), morningglory (Ipomoea spp.), redroot pigweed (Amaranthus retroflexus), velvetleaf (Abutilon theophrasti), wheat (Triticum aestivum), and corn (Zea mays) were planted into a blend of loam soil and sand and treated preemergence with a directed soil spray using test compounds formulated in a non-phytotoxic solvent mixture which included a surfactant. At the same time these species were also treated with postemergence applications of test compounds formulated in the same manner. Plants ranged in height from two to ten cm and were in the one- to two-leaf stage for the postemergence treatment. Treated plants and untreated controls were maintained in a greenhouse for approximately ten days, after which time all treated plants were compared to untreated controls and visually evaluated for injury. […] A dash (-) response means no test results.

wheat = assay: Test A pre-/postemergence greenhouse test; type: in vivo, Triticum aestivum; conditions: for Wheat plant response rating: 0 to 100 scale; for Plant response rating, Wheat: 0 to 100 scale where 0 is no effect and 100 is complete control
Source text: as §1

velvetleaf = assay: Test A pre-/postemergence greenhouse test; type: in vivo, Abutilon theophrasti; conditions: for Velvetleaf plant response rating: 0 to 100 scale; for Plant response rating, Velvetleaf: 0 to 100 scale where 0 is no effect and 100 is complete control
Source text: as §1

morningglory = assay: Test A pre-/postemergence greenhouse test; type: in vivo, Ipomoea spp.; conditions: for Morningglory plant response rating: 0 to 100 scale; for Plant response rating, Morningglory: 0 to 100 scale where 0 is no effect and 100 is complete control
Source text: as §1

barnyardgrass [1] = assay: Test A pre-/postemergence greenhouse test; type: in vivo, Echinochloa crus-galli; conditions: for Barnyardgrass plant response rating: 0 to 100 scale; for Plant response rating, Barnyardgrass: 0 to 100 scale where 0 is no effect and 100 is complete control
Source text: as §1

barnyardgrass [2] = assay: Test C flooded paddy test; type: in vivo, Echinochloa crus-galli; conditions: Flood
Source text: (§2) At time of treatment, test pots were flooded to 3 cm above the soil surface, treated by application of test compounds directly to the paddy water, and then maintained at that water depth for the duration of the test. Treated plants and controls were maintained in a greenhouse for 13 to 15 days, after which time all species were compared to controls and visually evaluated. […] A dash (-) response means no test result.

duck salad = assay: Test C flooded paddy test; type: in vivo, Heteranthera limosa; conditions: Flood
Source text: as §2

umbrella sedge = assay: Test C flooded paddy test; type: in vivo, Cyperus difformis; conditions: Flood
Source text: as §2

rice = assay: Test C flooded paddy test; type: in vivo, Oryza sativa; conditions: Flood
Source text: as §2

crabgrass = assay: Test A pre-/postemergence greenhouse test; type: in vivo, Digitaria sanguinalis; conditions: for Crabgrass, Large plant response rating: 0 to 100 scale; for Plant response rating, Crabgrass, Large: 0 to 100 scale where 0 is no effect and 100 is complete control
Source text: as §1

giant foxtail = assay: Test A pre-/postemergence greenhouse test; type: in vivo, Setaria faberi; conditions: for Foxtail, Giant plant response rating: 0 to 100 scale; for Plant response rating, Foxtail, Giant: 0 to 100 scale where 0 is no effect and 100 is complete control
Source text: as §1

corn = assay: Test A pre-/postemergence greenhouse test; type: in vivo, Zea mays; conditions: for Corn plant response rating: 0 to 100 scale; for Plant response rating, Corn: 0 to 100 scale where 0 is no effect and 100 is complete control
Source text: as §1

[3] = Postemergence, 125 g ai/ha, 0 is no effect, 100 is complete control
[4] = Postemergence, 500 g ai/ha, 0 is no effect, 100 is complete control
[5] = Preemergence, 125 g ai/ha, 0 no effect, 100 complete control
[6] = 31 g ai/ha, scale 0 to 100 (0 no effect, 100 complete control)
[7] = 62 g ai/ha, scale 0 to 100, 0 no effect, 100 complete control, 13 to 15 days
[8] = 125 g ai/ha, scale 0 to 100, 0 no effect, 100 complete control, 13 to 15 days
[9] = 250 g ai/ha, scale 0 to 100 (0 no effect, 100 complete control)
[10] = Preemergence, 500 g ai/ha, 0 no effect, 100 complete control

## Cc1cc[n+]([O-])c([S+]([O-])C(C)c2c(C(F)(F)F)nn(C)c2Cl)c1 (mixture of isomers) [Compound 15]
Redroot pigweed; [3]
  Pigweed plant response rating: 0
Redroot pigweed; [4]
  Pigweed plant response rating: 0
Redroot pigweed; Preemergence, 500 g ai/ha
  Plant response rating, Pigweed: 0
wheat; [3]
  Wheat plant response rating: 0
wheat; [4]
  Wheat plant response rating: 0
wheat; [5]
  Wheat plant response rating: 0
wheat; Preemergence, 500 g ai/ha
  Plant response rating, Wheat: 0
velvetleaf; [3]
  Velvetleaf plant response rating: 0
velvetleaf; [4]
  Velvetleaf plant response rating: 0
velvetleaf; [5]
  Velvetleaf plant response rating: 0
velvetleaf; Preemergence, 500 g ai/ha
  Plant response rating, Velvetleaf: 0
morningglory; [3]
  Morningglory plant response rating: 0
morningglory; [4]
  Morningglory plant response rating: 0
morningglory; [5]
  Morningglory plant response rating: 0
morningglory; Preemergence, 500 g ai/ha
  Plant response rating, Morningglory: 0
Barnyardgrass [1]; [3]
  Barnyardgrass plant response rating: 0
Barnyardgrass [1]; [4]
  Barnyardgrass plant response rating: 0
Barnyardgrass [1]; [5]
  Barnyardgrass plant response rating: 0
Barnyardgrass [1]; Preemergence, 500 g ai/ha
  Plant response rating, Barnyardgrass: 0
Barnyardgrass [2]; [6]
  Plant response rating, Barnyardgrass: 20
Barnyardgrass [2]; [7]
  Plant response rating, Barnyardgrass: 20
Barnyardgrass [2]; [8]
  Plant response rating, Barnyardgrass: 20
Barnyardgrass [2]; [9]
  Plant response rating, Barnyardgrass: 20
Duck salad; [6]
  Plant response rating, Ducksalad: 20
Duck salad; [7]
  Plant response rating, Ducksalad: 80
Duck salad; [8]
  Plant response rating, Ducksalad: 80
Umbrella sedge; [6]
  Plant response rating, Sedge, Umbrella: 85
Umbrella sedge; [7]
  Plant response rating, Sedge, Umbrella: 85
Umbrella sedge; [8]
  Plant response rating, Sedge, Umbrella: 85
rice; [6]
  Plant response rating, Rice: 0
rice; [7]
  Plant response rating, Rice: 0
rice; [8]
  Plant response rating, Rice: 0
rice; [9]
  Plant response rating, Rice: 0
crabgrass; [3]
  Crabgrass, Large plant response rating: 0
crabgrass; [4]
  Crabgrass, Large plant response rating: 0
crabgrass; [5]
  Crabgrass, Large plant response rating: 0
crabgrass; Preemergence, 500 g ai/ha
  Plant response rating, Crabgrass, Large: 20
Giant foxtail; [3]
  Foxtail, Giant plant response rating: 0
Giant foxtail; [4]
  Foxtail, Giant plant response rating: 0
Giant foxtail; [5]
  Foxtail, Giant plant response rating: 0
Giant foxtail; Preemergence, 500 g ai/ha
  Plant response rating, Foxtail, Giant: 0
corn; [3]
  Corn plant response rating: 0
corn; [4]
  Corn plant response rating: 0
corn; [5]
  Corn plant response rating: 0
corn; Preemergence, 500 g ai/ha
  Plant response rating, Corn: 0

## CC(c1c(C(F)(F)F)nn(C)c1Cl)[S+]([O-])c1cccc[n+]1[O-] (mixture of isomers) [Compound 27]
Redroot pigweed; [3]
  Pigweed plant response rating: 0
Redroot pigweed; [4]
  Pigweed plant response rating: 10
Redroot pigweed; [5]
  Pigweed plant response rating: 0
Redroot pigweed; Preemergence, 500 g ai/ha
  Plant response rating, Pigweed: 0
wheat; [3]
  Wheat plant response rating: 0
wheat; [4]
  Wheat plant response rating: 0
wheat; [5]
  Wheat plant response rating: 20
wheat; Preemergence, 500 g ai/ha
  Plant response rating, Wheat: 30
velvetleaf; [3]
  Velvetleaf plant response rating: 0
velvetleaf; [4]
  Velvetleaf plant response rating: 0
velvetleaf; [5]
  Velvetleaf plant response rating: 20
velvetleaf; Preemergence, 500 g ai/ha
  Plant response rating, Velvetleaf: 20
morningglory; [3]
  Morningglory plant response rating: 0
morningglory; [4]
  Morningglory plant response rating: 20
morningglory; [5]
  Morningglory plant response rating: 0
morningglory; Preemergence, 500 g ai/ha
  Plant response rating, Morningglory: 0
Barnyardgrass [1]; [3]
  Barnyardgrass plant response rating: 20
Barnyardgrass [1]; [4]
  Barnyardgrass plant response rating: 50
Barnyardgrass [1]; [5]
  Barnyardgrass plant response rating: 0
Barnyardgrass [1]; Preemergence, 500 g ai/ha
  Plant response rating, Barnyardgrass: 70
Barnyardgrass [2]; [6]
  Plant response rating, Barnyardgrass: 0
Barnyardgrass [2]; [7]
  Plant response rating, Barnyardgrass: 0
Barnyardgrass [2]; [8]
  Plant response rating, Barnyardgrass: 0
Barnyardgrass [2]; [9]
  Plant response rating, Barnyardgrass: 0
Duck salad; [6]
  Plant response rating, Ducksalad: 0
Duck salad; [7]
  Plant response rating, Ducksalad: 0
Duck salad; [8]
  Plant response rating, Ducksalad: 0
Duck salad; [9]
  Plant response rating, Ducksalad: 0
Umbrella sedge; [6]
  Plant response rating, Sedge, Umbrella: 0
Umbrella sedge; [7]
  Plant response rating, Sedge, Umbrella: 0
Umbrella sedge; [8]
  Plant response rating, Sedge, Umbrella: 0
Umbrella sedge; 250 g ai/ha, scale 0 to 100, 0 no effect, 100 complete control, 13 to 15 days
  Plant response rating, Sedge, Umbrella: 0
rice; [6]
  Plant response rating, Rice: 0
rice; [7]
  Plant response rating, Rice: 0
rice; [8]
  Plant response rating, Rice: 0
rice; [9]
  Plant response rating, Rice: 0
crabgrass; [3]
  Crabgrass, Large plant response rating: 0
crabgrass; [4]
  Crabgrass, Large plant response rating: 40
crabgrass; [5]
  Crabgrass, Large plant response rating: 40
crabgrass; Preemergence, 500 g ai/ha
  Plant response rating, Crabgrass, Large: 80
Giant foxtail; [3]
  Foxtail, Giant plant response rating: 0
Giant foxtail; [4]
  Foxtail, Giant plant response rating: 60
Giant foxtail; [5]
  Foxtail, Giant plant response rating: 30
Giant foxtail; Preemergence, 500 g ai/ha
  Plant response rating, Foxtail, Giant: 80
corn; [3]
  Corn plant response rating: 0
corn; [4]
  Corn plant response rating: 20
corn; [5]
  Corn plant response rating: 0
corn; Preemergence, 500 g ai/ha
  Plant response rating, Corn: 0

## Cn1nc(C(F)(F)F)c(C[S+]([O-])c2cc(C3CC3)cc[n+]2[O-])c1OCC(F)(F)F (centres unmarked) [Compound 121]
Redroot pigweed; Postemergence, 125 g ai/ha
  Plant response rating, Pigweed: 60
Redroot pigweed; [4]
  Pigweed plant response rating: 70
Redroot pigweed; [5]
  Pigweed plant response rating: 100
Redroot pigweed; [10]
  Pigweed plant response rating: 100
wheat; Postemergence, 125 g ai/ha
  Plant response rating, Wheat: 30
wheat; [4]
  Wheat plant response rating: 50
wheat; [5]
  Wheat plant response rating: 60
wheat; [10]
  Wheat plant response rating: 100
velvetleaf; Postemergence, 125 g ai/ha
  Plant response rating, Velvetleaf: 40
velvetleaf; [4]
  Velvetleaf plant response rating: 70
velvetleaf; [5]
  Velvetleaf plant response rating: 60
velvetleaf; [10]
  Velvetleaf plant response rating: 80
morningglory; Postemergence, 125 g ai/ha
  Plant response rating, Morningglory: 40
morningglory; [4]
  Morningglory plant response rating: 60
morningglory; [5]
  Morningglory plant response rating: 40
morningglory; [10]
  Morningglory plant response rating: 90
Barnyardgrass [1]; Postemergence, 125 g ai/ha
  Plant response rating, Barnyardgrass: 50
Barnyardgrass [1]; [4]
  Barnyardgrass plant response rating: 70
Barnyardgrass [1]; [5]
  Barnyardgrass plant response rating: 100
Barnyardgrass [1]; [10]
  Barnyardgrass plant response rating: 100
crabgrass; Postemergence, 125 g ai/ha
  Plant response rating, Crabgrass, Large: 30
crabgrass; [4]
  Crabgrass, Large plant response rating: 80
crabgrass; [5]
  Crabgrass, Large plant response rating: 100
crabgrass; [10]
  Crabgrass, Large plant response rating: 100
Giant foxtail; Postemergence, 125 g ai/ha
  Plant response rating, Foxtail, Giant: 50
Giant foxtail; [4]
  Foxtail, Giant plant response rating: 80
Giant foxtail; [5]
  Foxtail, Giant plant response rating: 100
Giant foxtail; [10]
  Foxtail, Giant plant response rating: 100
corn; Postemergence, 125 g ai/ha
  Plant response rating, Corn: 20
corn; [4]
  Corn plant response rating: 60
corn; [5]
  Corn plant response rating: 60
corn; [10]
  Corn plant response rating: 90
